Read-outs that look alike come from different tables or passages of the source.
How the values were obtained:
TEM-1 = biological target: T1, TEM-1 (Escherichia coli, UniProt P62593); test: thermal denaturation with right-angle/static light scattering (aggregation) in presence of beta-lactamase inhibitors; assay type: biochemical, E. coli; settings: TEM-1, dose titration of inhibitor
T1 construct: DNA TEM (870 bp) or SHV (894 bp) were each sub-cloned into a PUC57 vector cloning site NdeI/XhoI; His-tag (N); TEV cleavage site (N); made in house; host or cells: E. coli BL21 (DE3)
T1 sequence (P62593 24-286 limits assumed): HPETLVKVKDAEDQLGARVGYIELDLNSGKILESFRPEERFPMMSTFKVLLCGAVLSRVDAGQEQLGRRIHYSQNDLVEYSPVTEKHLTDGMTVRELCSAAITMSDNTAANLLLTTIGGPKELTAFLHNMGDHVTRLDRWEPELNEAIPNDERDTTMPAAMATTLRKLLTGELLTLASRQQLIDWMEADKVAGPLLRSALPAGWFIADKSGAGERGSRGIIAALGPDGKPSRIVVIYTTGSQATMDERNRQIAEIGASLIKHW
Source text: (FIG. 1E) Heat denaturation of TEM-1 monitored by intrinsic fluorescence plotted as the BaryCentric Mean (BCM) of the fluorescence emission spectrum in the presence (red) and absence (blue) of tazobactam. […] (FIG. 1F) Temperature-dependent evolution of the Right-Angle Light Scattering (RALS) intensity measured simultaneously with the data in FIG. 1G to monitor protein aggregation. […] (FIGS. 1G, 1H, 1I, and 1J) Same data as in FIG. 1F, but showing a dose-titration of different beta-lactamase inhibitors: tazobactam (FIG. 1G), clavulanate (FIG. 1H), vaborbactam (FIG. 1I) and avibactam (FIG. 1J). Each curve a single experiment, which was repeated in triplicate.
Then, we performed a thermal denaturation whilst simultaneously monitoring the intrinsic fluorescence as a measure of the folding status of the molecule (FIG. 1E), and the static light scattering as a measure of aggregation (FIG. 1F).

E. coli strain UZ_TEM104 [1] = assay type: cell-based
E. coli UZ_TEM104 = test: FACS analysis with Propidium Iodide and pFTAA; assay type: cell-based; settings: 400 μg/mL penicillin G only, 4 h
Description: (§1) FIGS. 3A-3P. […] Three replicates are shown for each condition. […] A single representative image is shown. […] Three replicates are shown for each condition. (FIG. 3E) [Left] […] [Middle] […] [Right] […] A single representative image is shown. […] A single representative image is shown. […] A single representative image is shown. […] A single representative blot is shown. […] 106 cells were analysed for the plot.
First, we tested the assay using a mixture of live and heat inactivated (FIG. 3L) or just live bacteria (FIG. 3M), showing that heat inactivated, but not live bacteria are stained with PI, and neither are stained with pFTAA.
Bacterial cells in the cleaned suspensions were stained with both propidium iodide (PI) and FITC peptide to evaluate the killing rate and peptide uptake in a two-dimensional analysis. […] Treated bacteria washed with PBS buffer two times. One microliter of PI (Invitrogen) was added to the bacteria and incubated for 5 min. The bacteria were used by FACS tubes for 40000 events. To correlate the activity of the peptides with cell death, the fluorescence intensity was measured in two channels using the Gallios™ Flow Cytometer (Beckman Coulter, USA), PI: excitation 536 nm and emission 617 nm, FITC: excitation 490 nm and emission 525 nm. Heated bacteria at 90° C. for 10 min were used as PI-positive control.

E. coli strain UZ_TEM104 [2] = assay type: cell-based; settings: peptide alone
Source text: In order to generate a synthetic amyloid peptide capable of inactivating the TEM-1 beta-lactamase enzyme by capitalizing on its aggregation propensity, we applied a previously developed design pattern for synthetic aggregating sequences. This involves a tandem repeat of the APR, each instance flanked by charged amino acids for solubility and separated by a short peptide linker^19,20,23 (FIG. 2G). Previous work has shown that good bacterial uptake can be achieved using one positively charged arginine residue on the N-terminal side of each APR in the tandem and two arginine residues on the C-terminal side. This has the additional benefit of reducing the self-aggregation of the peptides and increasing their solubility prior to target engagement. As before, we employed a single Pro residue as a linker between the APRs and focused on an APR length of seven, extending shorter APRs to this length by incorporating flanking amino acids unless they were obvious aggregation breakers (Arg, Lys, Asp, Glu or Pro, see Table 1). We obtained these peptides from solid phase synthesis, followed by HPLC purification to a purity judged by reverse phase chromatography of at least 90% (Genscript).
Determination of MIC values using the broth microdilution in the 96-well plate (BD Biosciences, Belgium) according to the EUCAST guideline, which was performed in 96-well polystyrene flat bottom microtiter plates (BD Biosciences). Briefly, a single colony was inoculated into 5 mL Difco™ Mueller Hinton Broth (BD Biosciences Ref 275730) and grown to the end-exponential growth phase in a shaking incubator at 37° C. Cultures were subsequently diluted to an MacFarland (0.5 optical density) then the culture was diluted to reach 10^6 CFU/mL in fresh MHB medium. 50 μl of different concentration of peptides ranging from 128 to 2 μg/mL were serially diluted to the sterile 96-well plate in MHB. 50 μL of the diluted bacteria in MHB were pipetted into 96-well plates to reach the final volume of 100 μL. The bacteria grown with the maximum concentration of carrier and medium were considered as positive and negative controls, respectively. The plates were statically incubated overnight at 37° C. to allow bacterial growth. OD was measured at 590 nm a multipurpose ultraviolet-visible plate reader, and the absorbance of the growth bacteria was measured using absorbance reader. Bacterial growth was also visually inspected and agreed well with the OD reading.

[3] = test system: TEM beta-lactamase in E. coli UZ_TEM104; test: western blot of inclusion body (IB) fraction for TEM; assay type: cell-based; settings: 12 μM peptide in PBS, 120 min
Description: as §1
(§2) Moreover, we confirmed the presence of the protein in the correct band using mass spectrometry proteomics. We repeated this with a strain expressing SHV-154, blotting with a polyclonal rabbit antibody raised against the recombinant SHV enzyme described above (FIG. 3K).
(§3) The overnight culture of bacteria was centrifuged for 30 min at 4,000×g and cells were washed with physiological water (NaCl 0.9%). Bacterial cells were treated by peptide at the appropriate concentration for at least 2 h at 37 C. The bacterial pellets were washed with 10 mL buffer A (50 mM HEPES, pH 7.5, 300 mM NaCl, 5 mM β-mercaptoethanol, 1.0 mM EDTA) and centrifuged at 4° C. for 30 min at 4,000×g. The supernatant was discarded and 20 mL of buffer B (buffer A plus 1 tablet of the protease and phosphatase Inhibitor Cocktail (ab201119, Abcam, UK) was added to the bacterial pellet. In order to break the cells, a High-Pressure Homogenizer (Glen Creston Ltd) with the pressure set to 20,000-25,000 psi was used on ice, and in addition, the suspensions were sonicated (Branson Digital sonifier 50/60 Hz) on ice with alternating 2 min cycle (15 pulses at 50% power with 30 s pauses on ice, until completing 2 min total sonication time). The lysed cells were centrifuged at 4° C. for 30 min at 11,000×g. The precipitated fraction was afterward re-suspended with 10 mL buffer D (buffer A plus 0.8% (V/V) Triton X-100, 0.1% sodium deoxycholate) and the suspension was sonicated to ensure the pellet is completely dissolved. This step was repeated three times. Centrifugation was performed at 4° C. for 30 min at 11,000×g. Finally, to solubilize IBs, the pellet was suspended in 500 ul of buffer F (50 mM HEPES, pH 7.5, 8.0 M urea) of precipitated fraction.

E. coli TEM-104 = test: checkerboard assay (FICI), peptide versus penicillin G; assay type: cell-based; settings: strain with TEM; FICI below 0.5 = synergy
Source text: (§4) FIGS. 2A-2M. (FIG. 2A) TEM mutations and their effects on stability (total energy) as predicted by FoldX. […] Dashed line indicates a total energy difference of 0.5 kcal/mol, the FoldX cut-off above which mutations are considered to be destabilizing. (FIG. 2B) Barplot mapping mutations in (FIG. 2A) to the TEM sequence and indicating occurrence. […] The bar heights correspond to the number of times a mutation occurs across different TEM variants (right-hand y-axis). The color coding is identical to that in (FIG. 2A). Red line indicates the TANGO scores (indicated on the left-hand y-axis), with peaks corresponding to APRs. (FIG. 2C) Mapping of mutations in (FIG. 2A) and (FIG. 2B) to the TEM structure (pdb 1xpb). Protein surface is shown in gray, color coding of mutations is identical to (FIG. 2A) and (FIG. 2B). (FIGS. 2D, 2E, and 2F) Temperature-dependent evolution of the Right-Angle Light Scattering (RALS) intensity during a temperature ramp, similar as in FIG. 1F for key mutants of TEM1, namely TEM-10 (FIG. 2D), TEM-30 (FIG. 2E) and TEM-155 (FIG. 2F). Experiments were shown in triplicate, single repeat is shown. (FIG. 2G) Schematic representation of the structure of the peptides. APR—Aggregation Prone Region, R—Arginine. (FIG. 2H) Ribbon representation of the superposition of the crystal structures of TEM (green, pdb id 1bt5) and SHV (blue, pdb id 1shv). The catalytic site of the beta-lactamase activity is indicated and location of APR3 is shown in red. (FIG. 2I) TANGO aggregation score and alignment of APR3 in TEM and SHV. (FIG. 2J) Fractional Inhibitory Concentration Index determination of 5 peptides versus penicillin on E. coli TEM-104. […] FICI values below 0.5 indicate synergy. Values between 0.5 and 1.0 indicate additivity and values greater than 1 indicate indifference between the combined substances. (FIG. 2K) Same as J for E. coli SHV-11. (FIG. 2L) Same as J for a kanamycin resistant E. coli strain. (FIG. 2M) FICI values for the TEM3.2 peptide on a range of E. coli strains.
(§5) Moreover, the core sequence of peptide TEM3.0 also occurs in the structurally related SHV β-lactamase ([…]). Although the C-terminal extension residues H and N have been replaced with physicochemically similar R and Q, respectively (FIG. 2H). […] To quantify the synergy between these four peptides and penicillin G, we performed a so-called checkerboard assay, which allows to compare the activity of two test compounds co-incubated (here peptide and a beta-lactam antibiotic), to their individual activities in isolation. The result from the assay is quantified as the Fractional Inhibitory Concentration Index (FICI), and it is generally accepted that values below 0.5 indicate synergistic effects between the compounds. As a control, we generated a peptide using the same design, but based on a previously identified APR from the β-galactosidase enzyme (BGAL)^16 from E. coli (APR=SVIIWSL, peptide sequence=[…]) that has a MIC value>100 μg/mL on E. coli strain UZ_TEM104. We evaluated the synergy of the peptides with penicillin G in clinical E. coli isolates carrying the TEM ([…]) or SHV enzymes ([…]). […] As a further control, we also performed a checkerboard assay with an E. coli strain that was resistant to the aminoglycoside kanamycin and observed no synergy between this unrelated antibiotic and our peptides (FIG. 2L), in line with the notion that we are inhibiting a beta-lactamase but not the aminoglycoside degrading enzyme. […] The list of strains included some that harbored only TEM or SHV, but others contained additional Ambler Class A (CTX-M or […]) or Class B (VIM and NDM) beta-lactamases. […] In contrast, the presence of the NDM-type […], that does have a high affinity for Ampicillin and that is completely distinct in sequence and structure from TEM and SHV, seemed to completely prevent the effect of the peptide on the beta-lactam sensitivity of the strains in which it occurred (see also further). […]

E. coli SHV-11 = test: as above; assay type: cell-based; settings: strain with SHV-11; FICI below 0.5 = synergy
Source text: as §4, §5

[4] = test system: SHV beta-lactamase in strain expressing SHV-154; test: western blot of inclusion body (IB) fraction for SHV; assay type: cell-based, E. coli; settings: 12 μM peptide in PBS, 120 min
Description: as §1, §2, §3

Compound: NC(=O)[C@@H]1CC[C@@H]2CN1C(=O)N2OS(=O)(=O)O [avibactam]
- aggregation of the enzyme (static light scattering), dose-response (TEM-1): reduce the aggregation of the enzyme in a dose-responsive manner

Compound: O=C(O)[C@H]1/C(=C/CO)O[C@@H]2CC(=O)N21 [clavulanate]
- aggregation of the enzyme (static light scattering), dose-response (TEM-1): reduce the aggregation of the enzyme in a dose-responsive manner

Compound: CC1(C)S[C@@H]2[C@H](NC(=O)Cc3ccccc3)C(=O)N2[C@H]1C(=O)O [penicillin G, Benzylpenicillin sodium]
- MIC penicillin (E. coli strain UZ_TEM104 [1]; penicillin alone, buffer, additive 0 μg/mL): 1600 µg/mL
- change in PI (cell death) and pFTAA (aggregation) channels (E. coli UZ_TEM104): no major change in either channel

Compound: O=C(O)C[C@@H]1CC[C@H](NC(=O)Cc2cccs2)B(O)O1 [vaborbactam]
- aggregation of the enzyme (static light scattering), dose-response (TEM-1): reduce the aggregation of the enzyme in a dose-responsive manner

Compound: Ac-RLLTLASRRPRLLTLASRR-NH2 [TEM4.0]
- MIC penicillin (E. coli strain UZ_TEM104 [1]; in presence of additive at 50 μg/mL): 1600 µg/mL
- MIC peptide (E. coli strain UZ_TEM104 [2]): 100 µg/mL

Compound: RLTAFLRQRRPRLTAFLHNRR (non-natural molecule) [TEM3.3]
- enrichment of the TEM protein in inclusion bodies (western blot) [3]: clear enrichment of the TEM protein in IBs
- synergy with penicillin G (FICI) (E. coli TEM-104): synergy
- synergy with penicillin G (FICI) (E. coli SHV-11): synergy
- accumulation of the SHV enzyme in inclusion bodies (western blot) [4]: accumulates in IBs

Compound: RLTAFLRQRRPRLTAFLRQRR (non-natural molecule) [TEM3.1]
- enrichment of the TEM protein in inclusion bodies (western blot) [3]: not
- synergy with penicillin G (FICI) (E. coli SHV-11): clear synergy
- accumulation of the SHV enzyme in inclusion bodies (western blot) [4]: accumulates in IBs

— patent publication US20240165196A1, “Beta-Lactamase Inhibitors” (VIB VZW, priority 2021, published 2024)
